# Measurements as given in patent US10258664B2, “Methods and compositions for treating pain” (MannKind Corporation, priority 2011, dated 2019).
# Residues, ends and D or L forms follow the SMILES beside them.
# Tests used:
# mice [1] = experiment: Conditioned place preference (CPP) study; settings: 0.125 mg insufflated; FIG. 5
# Description: In a conditioned place preference (CPP) study to evaluate the “reward” or “aversive” value of the drug, mice are conditioned to associate one compartment of the apparatus with treatment. […] The experiments were conducted similarly as described in the previous examples. […] To test placebo effect, additional mice were insufflated with FDKP (TECHNOSPHERE®) powder (0.5 mg) without any peptide.
# mice [2] = experiment: Spontaneous locomotion and respiration in the comprehensive laboratory animal monitoring system (CLAMS); settings: 0.125 mg by insufflation; for ambulation (spontaneous locomotion): FIG. 4A; for respiration rate: FIG. 4B
# patient = experiment: Patient examples: inhaled analgesic composition, patient-reported pain; format: in vivo, human
# Description: patient one reports headache pain to their doctor. […] The analgesic composition is 15% peptide. The analgesic composition is administered with a reusable inhaler calibrated to provide a dose of 5 mg/kg of body weight.
# A patient undergoing chemotherapy reports stomach pain to their doctor. […] The analgesic composition is 15% peptide. The analgesic composition is administered with a reusable inhaler calibrated to provide a dose of 5 mg/kg of body weight.
# (§1) A patient reports back pain to their doctor. Following examination of the patient, the doctor prescribes an analgesic composition containing a FDKP/Trp-(D)Pro-Ser-Phe-NH2 (SEQ ID NO: 3, Compound 3), composition prepared as described in the previous Examples. The analgesic composition is 15% peptide. The analgesic composition is administered with a reusable inhaler calibrated to provide a dose of 4 mg/kg of body weight.
# as §1, with “dental” for “back”, “an Na2FDKP/Ac-His-(D)Phe-Arg-(D)Trp-Gly-NH2” for “a FDKP/Trp-(D)Pro-Ser-Phe-NH2”, “6,” for “3,”, “6)” for “3),”, “10%” for “15%”, “7” for “4”
# A patient reports pain due to multiple sclerosis to their doctor. […] The analgesic composition is 20% peptide. The analgesic composition is administered with a reusable inhaler calibrated to provide a dose of 3 mg/kg of body weight.
# patient two reports muscle pain to their doctor. Following examination of the patient, the doctor prescribes an analgesic composition containing a FDKP/Ac-His-(D)Phe-Arg-(D)Trp-Gly-NH2 (SEQ ID NO: 6, Compound 6) composition prepared as described in the previous Examples. The analgesic composition is 15% peptide. The analgesic composition is administered with a reusable inhaler calibrated to provide a dose of 5 mg/kg of body weight.
# A patient reports pain from a broken arm to their doctor. Following examination of the patient, the doctor prescribes an analgesic composition containing a Na2FDKP/Trp-(D)Ser-Ser-Phe-NH2 (SEQ ID NO: 4, Compound 4) composition prepared as described in the previous Examples. The analgesic composition is 25% peptide. The analgesic composition is administered with a reusable inhaler calibrated to provide a dose of 2 mg/kg of body weight.
# A patient reports their low pain threshold to their dentist. Following examination of the patient and prior to the dental procedure, the dentist administers an analgesic composition containing a FDKP/Ac-Nle-Gln-His-(D)Phe-Arg-(D)Trp-Gly-NH2 (SEQ ID NO:7, Compound 7) composition prepared as described in the previous Examples. The analgesic composition is 10% peptide. The analgesic composition is administered with a single-use inhaler designed to provide a dose of 5 mg/kg of body weight.
# mice [3] = experiment: 55° C. warm-water tail withdrawal (tail-flick) assay; format: in vivo, mouse; settings: FIG. 1; for plateau of antinociceptive effect: insufflated
# Description: Antinociceptive effect was tested in a mouse tail-withdrawal (“tail-flick,” Aldrich et al. 2009) assay in which the tail of a restrained mouse is exposed to water at 55° C. […] Durations shorter than the maximum are reported as a percentage of the time limit. This tail-flick test (also known as the 55° C. warm-water tail withdrawal assay) is an industry acceptable, nonclinical model for assessing the efficacy of analgesics in treating acute pain. To test placebo effect, FDKP (TECHNOSPHERE®) powder (0.5 mg) without any peptide was used in the study. Each animal is tested for baseline tail-withdrawal latency prior to drug administration. Latency to withdraw the tail was subsequently measured in 10 minutes post-drug administration intervals as indicated. A maximum response time of 15 seconds was utilized to prevent tissue damage. Data reported as percent antinociception, as calculated by the following equation: % antinociception is equal to 100 times (test latency minus baseline latency) divided by (15 minus baseline latency).
# The tetrapetide, (D)Phe-(D)Phe-(D)Nle-(D)Arg-NH2 (SEQ ID NO: 2, Compound 2) was administered to mice by intraperitoneal (i.p.) injection (3 mg/kg) in a saline solution, and by pulmonary insufflation of a dry powder formulation containing FDKP at various doses, 0.25 mg, 0.125 mg, 0.013 mg, 1.25 μg and 0.13 μg. The tail-flick test was performed for a period of time after administration. […]
compound,measurement,setting,value
"CC[C@@H](C)[C@@H](NC(=O)[C@@H](Cc1ccccc1)NC(=O)[C@H](N)Cc1ccccc1)C(=O)N[C@H](CCCNC(=N)N)C(N)=O [Compound 1, (D)Phe-(D)Phe-(D)Ile-(D)Arg-NH2]",place preference for the drug-paired compartment,mice [1],no preference for the paired compartment
same,ambulation (spontaneous locomotion),mice [2],comparable to animals receiving placebo
same,respiration rate,mice [2],comparable to animals receiving placebo
"CCCC[C@@H](NC(=O)[C@@H](Cc1ccccc1)NC(=O)[C@H](N)Cc1ccccc1)C(=O)N[C@H](CCCNC(=N)N)C(N)=O [Compound 2, (D)Phe-(D)Phe-(D)Nle-(D)Arg-NH2] (HELM PEPTIDE1{[dF].[dF].[CCCC[C@@H](N[*:1])C(=O)[*:2]].[dR].[am]}$$$$V2.0; N-terminus assumed)",place preference for the drug-paired compartment,mice [1],no preference for the paired compartment
same,patient-reported headache pain,"patient; FDKP composition, 15% peptide, inhaled 5 mg/kg, person one",elimination of their headache pain
same,patient-reported pain due to multiple sclerosis,"patient; Na2FDKP composition, 20% peptide, inhaled 3 mg/kg, person",elimination of their multiple sclerosis pain
same,antinociception effect versus time,mice [3]; all doses: i.p. 3 mg/kg in saline and insufflated FDKP dry powder 0.25 mg to 0.13 μg,rapidly provided near-complete antinociception
same,time course of antinociceptive effect,mice [3]; i.p. injection 3 mg/kg in saline,decayed almost linearly with time
same,dose response of antinociception,mice [3]; insufflated FDKP dry powder 0.25 mg to 0.13 μg,clear dose response was evident
same,plateau of antinociceptive effect,mice [3]; 0.125 mg dose,approximately 30 minutes
same,plateau of antinociceptive effect,mice [3]; 0.25 mg dose,50 to 55 min
same,ambulation (spontaneous locomotion),mice [2],comparable to animals receiving placebo
same,respiration rate,mice [2],comparable to animals receiving placebo
"NC(=O)[C@H](Cc1ccccc1)NC(=O)[C@H](CO)NC(=O)[C@H]1CCCN1C(=O)[C@@H](N)Cc1c[nH]c2ccccc12 [Compound 3, Trp-(D)Pro-Ser-Phe-NH2] (HELM PEPTIDE1{W.[dP].S.F.[am]}$$$$V2.0)",patient-reported back pain,"patient; FDKP composition, 15% peptide, inhaled 4 mg/kg, person",elimination of their back pain
"NC(=O)[C@H](Cc1ccccc1)NC(=O)[C@H](CO)NC(=O)[C@@H](CO)NC(=O)[C@@H](N)Cc1c[nH]c2ccccc12 [Compound 4, Trp-(D)Ser-Ser-Phe-NH2] (HELM PEPTIDE1{W.[dS].S.F.[am]}$$$$V2.0)",patient-reported pain from a broken arm,"patient; Na2FDKP composition, 25% peptide, inhaled 2 mg/kg, person",elimination of their pain
"CN1CC[C@]23c4c5ccc(O)c4O[C@H]2[C@@H](O)C=C[C@H]3[C@H]1C5 [morphine, reference compound]",place preference for the drug-paired compartment,mice [1],strong preference for the associated compartment
same,ambulation (spontaneous locomotion),mice [2],locomotor hyperactivity
same,respiration rate,mice [2],depress the rate of respiration
Ac-His-(D)Phe-Arg-(D)Trp-Gly-NH2 (HXRXG; HELM PEPTIDE1{[ac].H.[dF].R.[dW].G.[am]}$$$$V2.0; SMILES CC(=O)N[C@@H](Cc1c[nH]cn1)C(=O)N[C@H](Cc1ccccc1)C(=O)N[C@@H](CCCNC(=N)N)C(=O)N[C@H](Cc1c[nH]c2ccccc12)C(=O)NCC(N)=O) [Compound 6],patient-reported muscle pain,"patient; FDKP composition, 15% peptide, inhaled 5 mg/kg, person two",elimination of their muscle pain
same,patient-reported dental pain,"patient; Na2FDKP composition, 10% peptide, inhaled 7 mg/kg, person",elimination of their dental pain
Ac-Nle-Gln-His-(D)Phe-Arg-(D)Trp-Gly-NH2 [Compound 7],patient-reported pain during dental procedure,"patient; FDKP composition, 10% peptide, single-use inhaler 5 mg/kg, given before procedure, person",no pain during the dental procedure
